settings: bacteroides thetaiotaomicron, 12 h, 2 µM
Description: The drug is tested on Bacteroides thetaiotaomicron strain: VPI-5482 for biotransformation. The drug concentrations were measured before and after a 12-h incubation by liquid-chromatography-coupled mass spectrometry (LC–MS)

Structure (SMILES)	Bacterial Biotransformation
CC(=O)SCC(Cc1ccccc1)C(=O)NCC(=O)OCc1ccccc1 (stereo unspecified) [RACECADOTRIL]	Compound metabolized
O=P1(N(CCCl)CCCl)NCCCO1 (stereo unspecified) [CYCLOPHOSPHAMIDE ANHYDROUS]	Compound NOT metabolized
CNCCC(Oc1ccc(C(F)(F)F)cc1)c1ccccc1 (stereo unspecified) [FLUOXETINE]	Compound metabolized
CC(C)(C)NCC(O)c1cc(Cl)c(N)c(Cl)c1 (stereo unspecified) [CLENBUTEROL]	Compound NOT metabolized

experiment: The drug is tested on Blautia hansenii strain: DSM20583 for biotransformation. The drug concentrations were measured before and after a 12-h incubation by liquid-chromatography-coupled mass spectrometry (LC–MS); settings: 2 µM

Structure (SMILES)	Bacterial Biotransformation
CC(=O)SCC(Cc1ccccc1)C(=O)NCC(=O)OCc1ccccc1 (stereo unspecified) [RACECADOTRIL]	Compound metabolized
O=P1(N(CCCl)CCCl)NCCCO1 (stereo unspecified) [CYCLOPHOSPHAMIDE ANHYDROUS]	Compound metabolized
CNCCC(Oc1ccc(C(F)(F)F)cc1)c1ccccc1 (stereo unspecified) [FLUOXETINE]	Compound metabolized
CC(C)(C)NCC(O)c1cc(Cl)c(N)c(Cl)c1 (stereo unspecified) [CLENBUTEROL]	Compound NOT metabolized

settings: victivallis vadensis, 12 h, 2 µM
Description: The drug is tested on Victivallis vadensis strain: ATCC BAA-548 for biotransformation. The drug concentrations were measured before and after a 12-h incubation by liquid-chromatography-coupled mass spectrometry (LC–MS)

Structure (SMILES)	Bacterial Biotransformation
CC(=O)SCC(Cc1ccccc1)C(=O)NCC(=O)OCc1ccccc1 (stereo unspecified) [RACECADOTRIL]	Compound metabolized
O=P1(N(CCCl)CCCl)NCCCO1 (stereo unspecified) [CYCLOPHOSPHAMIDE ANHYDROUS]	Compound NOT metabolized
CC(C)(C)NCC(O)c1cc(Cl)c(N)c(Cl)c1 (stereo unspecified) [CLENBUTEROL]	Compound NOT metabolized

experiment: The drug is tested on Escherichia coli strain: BW25113 for biotransformation. The drug concentrations were measured before and after a 12-h incubation by liquid-chromatography-coupled mass spectrometry (LC–MS); settings: 2 µM

Structure (SMILES)	Bacterial Biotransformation
CC(=O)SCC(Cc1ccccc1)C(=O)NCC(=O)OCc1ccccc1 (stereo unspecified) [RACECADOTRIL]	Compound NOT metabolized
O=P1(N(CCCl)CCCl)NCCCO1 (stereo unspecified) [CYCLOPHOSPHAMIDE ANHYDROUS]	Compound NOT metabolized
CNCCC(Oc1ccc(C(F)(F)F)cc1)c1ccccc1 (stereo unspecified) [FLUOXETINE]	Compound metabolized
CC(C)(C)NCC(O)c1cc(Cl)c(N)c(Cl)c1 (stereo unspecified) [CLENBUTEROL]	Compound NOT metabolized

experiment: The drug is tested on Clostridium asparagiforme strain: DSM15981 for biotransformation. The drug concentrations were measured before and after a 12-h incubation by liquid-chromatography-coupled mass spectrometry (LC–MS); format: ADME; design: dose 2 uM, timepoint 0 vs 12 hours; settings: enterocloster asparagiformis, 2 µM

Structure (SMILES)	Bacterial Biotransformation
CNCCC(Oc1ccc(C(F)(F)F)cc1)c1ccccc1 (stereo unspecified) [FLUOXETINE]	Compound metabolized

experiment: The drug is tested on Collinsella intestinalis strain: DSM13280 for biotransformation. The drug concentrations were measured before and after a 12-h incubation by liquid-chromatography-coupled mass spectrometry (LC–MS); settings: 2 µM

Structure (SMILES)	Bacterial Biotransformation
CC(=O)SCC(Cc1ccccc1)C(=O)NCC(=O)OCc1ccccc1 (stereo unspecified) [RACECADOTRIL]	Compound NOT metabolized
O=P1(N(CCCl)CCCl)NCCCO1 (stereo unspecified) [CYCLOPHOSPHAMIDE ANHYDROUS]	Compound NOT metabolized
CNCCC(Oc1ccc(C(F)(F)F)cc1)c1ccccc1 (stereo unspecified) [FLUOXETINE]	Compound NOT metabolized
CC(C)(C)NCC(O)c1cc(Cl)c(N)c(Cl)c1 (stereo unspecified) [CLENBUTEROL]	Compound NOT metabolized

experiment: The drug is tested on Bifidobacterium breve strain: DSM20213 for biotransformation. The drug concentrations were measured before and after a 12-h incubation by liquid-chromatography-coupled mass spectrometry (LC–MS); settings: 2 µM

Structure (SMILES)	Bacterial Biotransformation
CC(=O)SCC(Cc1ccccc1)C(=O)NCC(=O)OCc1ccccc1 (stereo unspecified) [RACECADOTRIL]	Compound metabolized
O=P1(N(CCCl)CCCl)NCCCO1 (stereo unspecified) [CYCLOPHOSPHAMIDE ANHYDROUS]	Compound NOT metabolized
CNCCC(Oc1ccc(C(F)(F)F)cc1)c1ccccc1 (stereo unspecified) [FLUOXETINE]	Compound metabolized
CC(C)(C)NCC(O)c1cc(Cl)c(N)c(Cl)c1 (stereo unspecified) [CLENBUTEROL]	Compound NOT metabolized

settings: roseburia intestinalis, 12 h, 2 µM
Description: The drug is tested on Roseburia intestinalis strain: L1-82 for biotransformation. The drug concentrations were measured before and after a 12-h incubation by liquid-chromatography-coupled mass spectrometry (LC–MS)

Structure (SMILES)	Bacterial Biotransformation
CC(=O)SCC(Cc1ccccc1)C(=O)NCC(=O)OCc1ccccc1 (stereo unspecified) [RACECADOTRIL]	Compound metabolized
O=P1(N(CCCl)CCCl)NCCCO1 (stereo unspecified) [CYCLOPHOSPHAMIDE ANHYDROUS]	Compound NOT metabolized
CNCCC(Oc1ccc(C(F)(F)F)cc1)c1ccccc1 (stereo unspecified) [FLUOXETINE]	Compound metabolized
CC(C)(C)NCC(O)c1cc(Cl)c(N)c(Cl)c1 (stereo unspecified) [CLENBUTEROL]	Compound NOT metabolized

settings: akkermansia muciniphila, 12 h, 2 µM
Description: The drug is tested on Akkermansia muciniphila strain: ATCC BAA-835 for biotransformation. The drug concentrations were measured before and after a 12-h incubation by liquid-chromatography-coupled mass spectrometry (LC–MS)

Structure (SMILES)	Bacterial Biotransformation
CC(=O)SCC(Cc1ccccc1)C(=O)NCC(=O)OCc1ccccc1 (stereo unspecified) [RACECADOTRIL]	Compound metabolized
O=P1(N(CCCl)CCCl)NCCCO1 (stereo unspecified) [CYCLOPHOSPHAMIDE ANHYDROUS]	Compound NOT metabolized
CNCCC(Oc1ccc(C(F)(F)F)cc1)c1ccccc1 (stereo unspecified) [FLUOXETINE]	Compound metabolized
CC(C)(C)NCC(O)c1cc(Cl)c(N)c(Cl)c1 (stereo unspecified) [CLENBUTEROL]	Compound NOT metabolized

experiment: The drug is tested on Bacteroides vulgatus strain: ATCC8482 for biotransformation. The drug concentrations were measured before and after a 12-h incubation by liquid-chromatography-coupled mass spectrometry (LC–MS); settings: phocaeicola vulgatus, 2 µM

Structure (SMILES)	Bacterial Biotransformation
CC(=O)SCC(Cc1ccccc1)C(=O)NCC(=O)OCc1ccccc1 (stereo unspecified) [RACECADOTRIL]	Compound metabolized
O=P1(N(CCCl)CCCl)NCCCO1 (stereo unspecified) [CYCLOPHOSPHAMIDE ANHYDROUS]	Compound NOT metabolized
CNCCC(Oc1ccc(C(F)(F)F)cc1)c1ccccc1 (stereo unspecified) [FLUOXETINE]	Compound metabolized
CC(C)(C)NCC(O)c1cc(Cl)c(N)c(Cl)c1 (stereo unspecified) [CLENBUTEROL]	Compound NOT metabolized

experiment: The drug is tested on Dorea formicigenerans strain: ATCC27755 for biotransformation. The drug concentrations were measured before and after a 12-h incubation by liquid-chromatography-coupled mass spectrometry (LC–MS); settings: 2 µM

Structure (SMILES)	Bacterial Biotransformation
CNCCC(Oc1ccc(C(F)(F)F)cc1)c1ccccc1 (stereo unspecified) [FLUOXETINE]	Compound metabolized
CC(C)(C)NCC(O)c1cc(Cl)c(N)c(Cl)c1 (stereo unspecified) [CLENBUTEROL]	Compound NOT metabolized

settings: bacteroides thetaiotaomicron, 12 h, 2 µM; remark: another data set of the same source
Description: The drug is tested on Bacteroides thetaiotaomicron strain: 7330 for biotransformation. The drug concentrations were measured before and after a 12-h incubation by liquid-chromatography-coupled mass spectrometry (LC–MS)

Structure (SMILES)	Bacterial Biotransformation
CC(=O)SCC(Cc1ccccc1)C(=O)NCC(=O)OCc1ccccc1 (stereo unspecified) [RACECADOTRIL]	Compound metabolized
CNCCC(Oc1ccc(C(F)(F)F)cc1)c1ccccc1 (stereo unspecified) [FLUOXETINE]	Compound metabolized

experiment: The drug is tested on Blautia luti strain: DSM14534 for biotransformation. The drug concentrations were measured before and after a 12-h incubation by liquid-chromatography-coupled mass spectrometry (LC–MS); format: ADME; design: dose 2 uM, timepoint 0 vs 12 hours; settings: 2 µM

Structure (SMILES)	Bacterial Biotransformation
O=P1(N(CCCl)CCCl)NCCCO1 (stereo unspecified) [CYCLOPHOSPHAMIDE ANHYDROUS]	Compound NOT metabolized
CNCCC(Oc1ccc(C(F)(F)F)cc1)c1ccccc1 (stereo unspecified) [FLUOXETINE]	Compound NOT metabolized
CC(C)(C)NCC(O)c1cc(Cl)c(N)c(Cl)c1 (stereo unspecified) [CLENBUTEROL]	Compound NOT metabolized

experiment: The drug is tested on Bacteroides cellulosilyticus strain: DSM14838 for biotransformation. The drug concentrations were measured before and after a 12-h incubation by liquid-chromatography-coupled mass spectrometry (LC–MS); settings: 2 µM

Structure (SMILES)	Bacterial Biotransformation
CC(=O)SCC(Cc1ccccc1)C(=O)NCC(=O)OCc1ccccc1 (stereo unspecified) [RACECADOTRIL]	Compound metabolized
CNCCC(Oc1ccc(C(F)(F)F)cc1)c1ccccc1 (stereo unspecified) [FLUOXETINE]	Compound NOT metabolized
CC(C)(C)NCC(O)c1cc(Cl)c(N)c(Cl)c1 (stereo unspecified) [CLENBUTEROL]	Compound NOT metabolized

experiment: The drug is tested on Eubacterium ventriosum strain: ATCC27560 for biotransformation. The drug concentrations were measured before and after a 12-h incubation by liquid-chromatography-coupled mass spectrometry (LC–MS); format: ADME; design: dose 2 uM, timepoint 0 vs 12 hours; settings: 2 µM

Structure (SMILES)	Bacterial Biotransformation
CC(=O)SCC(Cc1ccccc1)C(=O)NCC(=O)OCc1ccccc1 (stereo unspecified) [RACECADOTRIL]	Compound metabolized
CNCCC(Oc1ccc(C(F)(F)F)cc1)c1ccccc1 (stereo unspecified) [FLUOXETINE]	Compound metabolized
CC(C)(C)NCC(O)c1cc(Cl)c(N)c(Cl)c1 (stereo unspecified) [CLENBUTEROL]	Compound NOT metabolized

settings: segatella copri, 12 h, 2 µM
Description: The drug is tested on Prevotella copri strain: DSM18205 for biotransformation. The drug concentrations were measured before and after a 12-h incubation by liquid-chromatography-coupled mass spectrometry (LC–MS)

Structure (SMILES)	Bacterial Biotransformation
CC(=O)SCC(Cc1ccccc1)C(=O)NCC(=O)OCc1ccccc1 (stereo unspecified) [RACECADOTRIL]	Compound metabolized
O=P1(N(CCCl)CCCl)NCCCO1 (stereo unspecified) [CYCLOPHOSPHAMIDE ANHYDROUS]	Compound NOT metabolized
CNCCC(Oc1ccc(C(F)(F)F)cc1)c1ccccc1 (stereo unspecified) [FLUOXETINE]	Compound metabolized
CC(C)(C)NCC(O)c1cc(Cl)c(N)c(Cl)c1 (stereo unspecified) [CLENBUTEROL]	Compound NOT metabolized

experiment: The drug is tested on Bacteroides sp. WH2 strain: WH2 for biotransformation. The drug concentrations were measured before and after a 12-h incubation by liquid-chromatography-coupled mass spectrometry (LC–MS); settings: bacteroides sp. wh2, 12 h, 2 µM

Structure (SMILES)	Bacterial Biotransformation
CC(=O)SCC(Cc1ccccc1)C(=O)NCC(=O)OCc1ccccc1 (stereo unspecified) [RACECADOTRIL]	Compound metabolized
O=P1(N(CCCl)CCCl)NCCCO1 (stereo unspecified) [CYCLOPHOSPHAMIDE ANHYDROUS]	Compound NOT metabolized
CNCCC(Oc1ccc(C(F)(F)F)cc1)c1ccccc1 (stereo unspecified) [FLUOXETINE]	Compound metabolized
CC(C)(C)NCC(O)c1cc(Cl)c(N)c(Cl)c1 (stereo unspecified) [CLENBUTEROL]	Compound NOT metabolized

experiment: The drug is tested on Subdoligranulum variabile strain: DSM15176 for biotransformation. The drug concentrations were measured before and after a 12-h incubation by liquid-chromatography-coupled mass spectrometry (LC–MS); settings: 2 µM

Structure (SMILES)	Bacterial Biotransformation
O=P1(N(CCCl)CCCl)NCCCO1 (stereo unspecified) [CYCLOPHOSPHAMIDE ANHYDROUS]	Compound NOT metabolized
CNCCC(Oc1ccc(C(F)(F)F)cc1)c1ccccc1 (stereo unspecified) [FLUOXETINE]	Compound metabolized
CC(C)(C)NCC(O)c1cc(Cl)c(N)c(Cl)c1 (stereo unspecified) [CLENBUTEROL]	Compound NOT metabolized

experiment: The drug is tested on Bacteroides fragilis strain: HMW610 for biotransformation. The drug concentrations were measured before and after a 12-h incubation by liquid-chromatography-coupled mass spectrometry (LC–MS); settings: 2 µM

Structure (SMILES)	Bacterial Biotransformation
CC(=O)SCC(Cc1ccccc1)C(=O)NCC(=O)OCc1ccccc1 (stereo unspecified) [RACECADOTRIL]	Compound metabolized
CNCCC(Oc1ccc(C(F)(F)F)cc1)c1ccccc1 (stereo unspecified) [FLUOXETINE]	Compound metabolized
CC(C)(C)NCC(O)c1cc(Cl)c(N)c(Cl)c1 (stereo unspecified) [CLENBUTEROL]	Compound NOT metabolized

settings: bacteroides eggerthii, 12 h, 2 µM
Description: The drug is tested on Bacteroides eggerthii strain: DSM20697 for biotransformation. The drug concentrations were measured before and after a 12-h incubation by liquid-chromatography-coupled mass spectrometry (LC–MS)

Structure (SMILES)	Bacterial Biotransformation
O=P1(N(CCCl)CCCl)NCCCO1 (stereo unspecified) [CYCLOPHOSPHAMIDE ANHYDROUS]	Compound NOT metabolized
CNCCC(Oc1ccc(C(F)(F)F)cc1)c1ccccc1 (stereo unspecified) [FLUOXETINE]	Compound metabolized
CC(C)(C)NCC(O)c1cc(Cl)c(N)c(Cl)c1 (stereo unspecified) [CLENBUTEROL]	Compound NOT metabolized
